Measured values published in ChEMBL document CHEMBL4219250, “Kröhnke pyridines: Rapid and facile access to Mcl-1 inhibitors” (Bioorg Med Chem Lett, 2018).
Calls of active or inactive are those of the source. No cut-off for these calls is given here.

How the values were obtained:
[1] = biological target: T1, Induced myeloid leukemia cell differentiation protein Mcl-1 (Homo sapiens, UniProt Q07820); assay: Displacement of TAMRA-Bak peptide from His6-MBP-tagged recombinant human MCl-1 (172 to 327 residues) expressed in HMS174 (DE3) cells by fluorescence polarization assay
[2] = biological target: T1, Induced myeloid leukemia cell differentiation protein Mcl-1; assay: Binding affinity to 15N-labeled His6-MBP-tagged recombinant human MCl-1 (172 to 327 residues) expressed in HMS174 (DE3) cells by two-dimensional1H-15N HSQC NMR spectra method; type: cell-based

T1 sequence (Q07820 whole entry, the tested form may be a part): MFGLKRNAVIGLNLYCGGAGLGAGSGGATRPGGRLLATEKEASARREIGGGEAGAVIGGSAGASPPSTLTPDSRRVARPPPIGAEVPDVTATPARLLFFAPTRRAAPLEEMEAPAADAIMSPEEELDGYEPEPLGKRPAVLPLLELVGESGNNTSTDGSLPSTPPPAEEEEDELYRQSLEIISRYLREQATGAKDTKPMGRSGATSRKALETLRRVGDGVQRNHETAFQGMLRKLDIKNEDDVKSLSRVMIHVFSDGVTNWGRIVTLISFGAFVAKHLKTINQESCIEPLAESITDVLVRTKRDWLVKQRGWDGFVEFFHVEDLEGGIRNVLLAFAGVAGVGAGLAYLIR

Ki [1] [µM] | Activity [2] | Structure (SMILES)
7.6 | – | O=C(O)c1cc(-c2ccc(Br)cc2)cc(-c2ccc(OCc3ccccc3)cc2)n1
28.8 | – | CC(C)Oc1ccc(-c2cc(C(=O)O)nc(-c3ccc(OC(C)C)cc3)c2)cc1
9.22 | – | O=C(O)c1cc(-c2ccc(OCc3ccccc3)cc2)cc(-c2ccc(OCc3ccccc3)cc2)n1
10.9 | – | COc1ccc(-c2cc(-c3ccc(Oc4ccccc4)cc3)cc(C(=O)O)n2)cc1
8.47 | – | O=C(O)c1cc(-c2ccc(Oc3ccccc3)cc2)cc(-c2cccc(Br)c2)n1
19.7 | – | CC(C)Oc1ccc(-c2cc(C(=O)O)nc(-c3ccc(OC(C)C)cc3OC(C)C)c2)cc1
10.3 | – | O=C(O)c1cc(-c2ccc(Oc3ccccc3)cc2)cc(-c2ccccc2Br)n1
38.2 | – | O=C(O)c1cc(-c2ccc(Oc3ccccc3)cc2)cc(-c2ccc3c(c2)OCO3)n1
4.43 | Active | O=C(O)c1cc(-c2ccc(Br)cc2)nc(-c2ccc(Oc3ccccc3)cc2)c1
13.7 | – | O=C(O)c1cc(-c2ccc(Oc3ccccc3)cc2)cc(-c2ccc([N+](=O)[O-])cc2)n1
> 100 | – | O=C(O)c1cc(-c2ccc(Br)cc2)cc(-c2ccc3c(c2)OCO3)n1
40 | – | O=C(O)c1cc(-c2ccc(Br)cc2)cc(-c2ccc(Br)cc2)n1
7.44 | – | O=C(O)c1cc(-c2ccc(Oc3ccccc3)cc2)cc(-c2ccc(Br)cc2)n1
9.77 | – | CC(C)Oc1ccc(-c2cc(C(=O)O)nc(-c3ccc(OCc4ccccc4)cc3)c2)cc1
9.24 | – | O=C(O)c1cc(-c2ccc(Oc3ccccc3)cc2)cc(-c2ccccc2)n1
40 | – | COc1ccc(-c2cc(-c3ccc(Br)cc3)cc(C(=O)O)n2)cc1
40 | – | O=C(O)c1cc(-c2ccc(Br)cc2)cc(-c2ccc(Cl)cc2)n1
100 | – | O=C(O)c1cc(-c2ccc(Br)cc2)cc(-c2ccccc2)n1
6.1 | – | O=C(O)c1cc(-c2ccc(Oc3ccccc3)cc2)cc(-c2ccc(OCc3ccccc3)cc2)n1
7.33 | – | CC(C)Oc1ccc(-c2cc(-c3ccc(Oc4ccccc4)cc3)cc(C(=O)O)n2)cc1
